Results taken from paper PMC9542285, “Novel amides of mycophenolic acid and some heterocyclic derivatives as immunosuppressive agents” (Journal of Enzyme Inhibition and Medicinal Chemistry, 2022).

Columns and labels:
[1] = In vitro cytotoxicity assay with XTT dye, T-Jurkat; type: cell-based, human; settings: human, T-Jurkat cell line, […], trypan blue exclusion
Procedure: (§1) Figure 2. Representative dose-response curve to determine the IC50 of MPA and A2. […] Next, plates were incubated for 24 h with XTT reagent. The conversion of water-soluble yellow tetrazolium XTT salt into orange formazan was monitored by measuring the optical density at 450 nm on microplate spectrophotometer. For XTT assay at least three experiments were performed and values are presented as mean ± SD.
(§2) The cytotoxic effect of derivatives of MPA was measured using in vitro 2,3-bis(2-methoxy-4-nitro-5-sulfophenyl)-2H-tetrazolium-5-carboxanilide (XTT)-based assay (Roche, Basel, Swiss). PBMCs suspended in complete X–VIVO20 medium and T-Jurkat cells suspended in complete RPMI-1640 medium were added on a 96-well plate at a concentration of 5 × 10^5 cells/50 µL/well. […] As a background control we used medium without cells, as a positive control we used cells untreated with compounds. After 48 h for T-Jurkat cells and 72 h for PBMCs of incubation in a humidified atmosphere with 5% CO2 at 37 °C, 50 µL of XTT reagent (freshly prepared according to the manufacturer’s procedure) was added to all samples. Plates were incubated for 24 h (5% CO2 at 37 °C). The conversion of water-soluble yellow tetrazolium XTT salt into orange formazan was monitored by measuring the optical density (OD) at 450 nm on Agilent BioTek Epoch Microplate Spectrophotometer (Agilent Technologies, Santa Clara, CA), with a background wavelength at 690 nm. […] Each sample was performed in triplicates.

in vitro = settings: human
Procedure: (§4) Cell proliferation was analysed using flow cytometry. The results are expressed as the mean ± SD.
(§5) PBMCs and T-Jurkat cells were washed twice with warm PBS (37 °C), suspended in fresh PBS at a final concentration of 10–30 × 10^6 cells/mL and labelled with 1 µL of VPD450 (BD Biosciences, Franklin Lakes, NJ) at 37 °C for 15 min. Each 5 min cells were vortexed to provide uniform staining[42]^,[43]. Subsequently, cells were washed with PBS and then with complete medium (X-VIVO20 for PBMCs and RPMI-1640 for T-Jurkat cells). After this step, cells were suspended in fresh complete medium, seeded on 96-well plates (1 × 10^6 cells/well). PBMCs were additionally stimulated with magnetic beads coated with anti-CD3 and anti-CD28 antibodies (Invitrogen, Carlsbad, CA) in 1:0.5 cell:bead ratio. Of 100 µL of examined derivatives of MPA were added to experimental wells to receive final concentrations: 100; 10; 1; 0.1; 0.01 µM. In parallel, stained and not stimulated cells, as well as stained and stimulated cells, were seeded in the same concentration as controls. After 48 h for T-Jurkat and 72 h for PBMCs, cells were analysed with flow cytometer LSRFortessa (BD Biosciences, Franklin Lakes, NJ) and Kaluza C Flow Cytometry Analysis Software (Beckman Coulter, Brea, CA). […] Cell viability was determined at the highest concentration of the tested compound. For this purpose, TC20 cell counter (Biorad) was used with trypan blue exclusion.

PBMCs [2] = test: In vitro cytotoxicity assay with XTT dye, PBMCs; type: cell-based, human; settings: Homo sapiens, PBMC, 72 h incubation then 24 h XTT, read-out: IC50 PBMCs (XTT test)
Procedure: as §1, §2

PBMCs [3] = test: cells; settings: Homo sapiens, PBMC, 72 h, read-out: EC50 PBMCs (VPD450 proliferation), PBMCs stimulated with anti-CD3/anti-CD28 beads, 72 h
Procedure: as §4, §5

[4] = Dye-based proliferation assay VPD450 (flow cytometry), T-Jurkat; type: cell-based, human; settings: human, VPD450-labelled T-Jurkat cells, […], trypan blue exclusion
Procedure: (§3) Figure 4. […] Cell proliferation was analysed using flow cytometry.

T-Jurkat cell line = test: In vitro cytotoxicity assay with XTT dye, T-Jurkat; type: cell-based, human; settings: Homo sapiens, 48 h incubation then 24 h XTT, read-out: IC50 T-Jurkat (XTT test)
Procedure: as §1, §2

T-Jurkat cells = test: Dye-based proliferation assay VPD450 (flow cytometry), T-Jurkat; type: cell-based, human; settings: Homo sapiens, 48 h
Procedure: as §3

PBMCs [5] = test: VPD450 proliferation of PBMCs with or without GMP (IMPDH mechanism test); type: cell-based, human; settings: for Mechanism of action (IMPDH inhibition, GMP reversal): PBMCs, with or without 50 µM GMP, 72 h
Procedure: According to reported experiment, suppression of cell proliferation caused by IMPDH inhibitors in the presence of guanosine source, e.g. gunosine monophosphate (GMP) is reversible.
Figure 5. […] Cell proliferation was analysed using flow cytometry.
Cells proliferation was analyzed using flow cytometry.
(1 picture or pasted object on this page, not shown here)

[6] = Precipitation / solubility of compounds in culture; type: physicochemical; set-up: key to Precipitating compound flag (XTT test, PBMCs) / Precipitating compound flag (VPD450 assay, PBMCs): (↓) – precipitating compound; settings: for Precipitating compound flag (VPD450 assay, PBMCs) / Precipitating compound flag (XTT test, PBMCs): PBMC culture, DMSO with Tween20; for Solubility in PBMC culture: XTT assay conditions
Procedure: Drug toxicity that affects the cells can cause a variety of serious side effects, including uncontrolled suppression of the immune system. In order to check the cytotoxicity of the tested compounds, the XTT test was performed, the results of which are presented in Table 2. All tested compounds were characterised by lower cytotoxicity than native MPA. Unfortunately, several compounds (marked with ↓) were partially insoluble in culture despite surfactant addition. They were investigated too, but one could not use them as an immunosuppressive drug in their current form. Taking into account the EC50 values obtained in the proliferation tests ([…] staining, Table 3), the compound A2 was selected as the one with the highest immunosuppressive potential and the possibility of its later use in therapy, and is presented in the graphs (Figures 2–4).
To prepare appropriate concentrations of tested compounds, the substances were dissolved in DMSO (Sigma Aldrich, Poland) with 1% addition of Tween20 to obtain final concentration of 0.01 M. The solution was diluted 10-fold and then 5-fold in appropriate medium without additives (RPMI-1640 for T-Jurkat cell line; X-VIVO20 for PBMCs) to obtain the following concentrations: 200; 20; 2; 0.2; 0.02 µM.

[7] = In vitro cytotoxicity assay with XTT dye, PBMCs; type: cell-based, human; settings: human, […], trypan blue exclusion
Procedure: as §1, §2

Row | Structure (SMILES) | viability at 48 h, 100 µM [1] [%] | viability at 72 h, 100 µM (in vitro) [%] | IC50 (PBMCs [2]) [µM] | EC50 (PBMCs [3]) [µM] | viability at 48 h, 100 µM [4] [%] | melting point | IC50 (T-Jurkat cell line) [µM] | EC50 (T-Jurkat cells) [µM] | Mechanism of action (IMPDH inhibition, GMP reversal) (PBMCs [5]) | Precipitating compound flag (VPD450 assay, PBMCs) [6] | Precipitating compound flag (XTT test, PBMCs) [6] | Solubility in PBMC culture [6] | viability at 72 h, 100 µM [7] [%] | Effect of GMP addition on proliferation (PBMCs [5])
1 | COc1c(C)c2c(c(O)c1C/C=C(\C)CCC(=O)Nc1nc3ccccc3s1)C(=O)OC2 [A1, N-(benzo[d]thiazol-2-yl) mycophenolate] | 68 | 82 | 74.57 ± 0.04 | – | – | – | – | – | – | – | – | – | – | –
2 | COc1c(C)c2c(c(O)c1C/C=C(\C)CCC(=O)Nc1nc3ccccc3[nH]1)C(=O)OC2 [A3, N-(1H-benzo[d]imidazol-2-yl) mycophenolate] | 74 | – | 94.538 ± 0.047 | 120 | 55 | 253 to 255 °C (dec.) | – | – | – | – | – | – | – | –
3 | COc1c(C)c2c(c(O)c1C/C=C(\C)CCC(=O)Nc1ccc3ncsc3c1)C(=O)OC2 [A4, N-(benzo[d]thiazol-6-yl) mycophenolate] | – | – | 24.639 ± 0.015 | 62.26 ± 0.01 | – | 175 to 177 °C | 37.789 ± 0.002 | 14.73 ± 0.074 | – | – | – | – | – | –
4 | COc1c(C)c2c(c(O)c1C/C=C(\C)CCC(=O)Nc1ccc3scnc3c1)C(=O)OC2 [A5, N-(benzo[d]thiazol-5-yl) mycophenolate] | – | – | 45.73 ± 0.023 | 76.98 ± 0.01 | – | 114 to 117 °C | 75.04 ± 0.005 | 36.05 ± 0.18 | – | – | – | – | – | –
5 | COc1c(C)c2c(c(O)c1C/C=C(\C)CCC(=O)Nc1ccc3ocnc3c1)C(=O)OC2 [A6, N-(benzo[d]oxazol-5-yl) mycophenolate] | – | – | 55.487 ± 0.028 | 58.27 ± 0.021 | – | 84 to 87 °C | 31.407 ± 0.002 | 13.84 ± 0.069 | – | – | – | – | – | –
6 | COc1c(C)c2c(c(O)c1C/C=C(\C)CCC(=O)NCc1ncccn1)C(=O)OC2 [A7, N-[1-(pirymidin-2-yl)methyl] mycophenolate] | – | – | 70.48 ± 0.035 | 29.45 ± 0.025 | – | 107 to 110 °C | 10.739 ± 0.003 | 9.51 ± 0.047 | consistent with that of MPA | – | – | – | – | –
7 | COc1ccc2nc(NC(=O)CC/C(C)=C/Cc3c(O)c4c(c(C)c3OC)COC4=O)sc2c1 [A8, N-(6-methoxybenzo[d]thiazol-2-yl) mycophenolate] | – | – | 93.196 ± 0.047 | 133.5 ± 0.007 | – | – | 51.124 ± 0.008 | 22.04 ± 0.11 | – | (↓) | (↓) | limited solubility | – | –
8 | COc1c(C)c2c(c(O)c1C/C=C(\C)CCC(=O)Nc1nc3ccc(C)cc3s1)C(=O)OC2 [A9, N-(6-methylbenzo[d]thiazol-2-yl) mycophenolate] | – | – | 94.6 ± 0.047 | 136.2 ± 0.011 | – | 257 to 260 °C (dec.) | 85.7 ± 0.004 | 22.72 ± 0.113 | – | (↓) | (↓) | limited solubility | – | –
9 | COc1c(C)c2c(c(O)c1C/C=C(\C)CCC(=O)Nc1nc3cc(C)c(C)cc3s1)C(=O)OC2 [A10, N-(5,6-dimethylbenzo[d]thiazol-2-yl) mycophenolate] | 51 | – | 129.41 ± 0.064 | 85.24 ± 0.012 | – | 246 to 247 °C (dec.) | – | 26.69 ± 0.133 | – | – | – | – | – | –
10 | COc1c(C)c2c(c(O)c1C/C=C(\C)CCC(=O)Nc1nc3ccc(F)cc3s1)C(=O)OC2 [A11, N-(6-fluorobenzo[d]thiazol-2-yl) mycophenolate] | 56 | – | 139.86 ± 0.07 | 83.07 ± 0.012 | – | 232 to 236 °C (dec.) | – | 63.21 ± 0.316 | – | (↓) | (↓) | limited solubility | – | –
11 | COc1c(C)c2c(c(O)c1C/C=C(\C)CCC(=O)Nc1nc3ccc(Cl)cc3s1)C(=O)OC2 [A12, N-(6-chlorobenzo[d]thiazol-2-yl) mycophenolate] | – | – | 62.975 ± 0.031 | 38.37 ± 0.017 | – | 261 to 264 °C (dec.) | 12.833 ± 0.008 | 12.16 ± 0.061 | – | (↓) | (↓) | limited solubility | – | –
12 | COc1c(C)c2c(c(O)c1C/C=C(\C)CCC(=O)Nc1nc3ccc(Br)cc3s1)C(=O)OC2 [A13, N-(6-bromobenzo[d]thiazol-2-yl) mycophenolate] | – | – | 63.173 ± 0.032 | 39.47 ± 0.013 | – | 265 to 267 °C (dec.) | 58.069 ± 0.002 | 12.64 ± 0.063 | – | – | – | – | – | –
13 | COc1c(C)c2c(c(O)c1C/C=C(\C)CCC(=O)Nc1nc3ccc(C(F)(F)F)cc3s1)C(=O)OC2 [A14, N-[6-(trifluoromethyl)benzo[d]thiazol-2-yl] mycophenolate] | – | – | 81.482 ± 0.041 | 30.71 ± 0.008 | – | 261 to 264 °C (dec.) | 34.749 ± 0.003 | 12.58 ± 0.063 | – | – | – | – | – | –
14 | COc1c(C)c2c(c(O)c1C/C=C(\C)CCC(=O)Nc1nc3ccc([N+](=O)[O-])cc3s1)C(=O)OC2 [A15, N-(6-nitrobenzo[d]thiazol-2-yl) mycophenolate] | – | – | 137.63 ± 0.069 | 44.59 ± 0.013 | – | 278 to 280 °C (dec.) | 12.717 ± 0.005 | 13.37 ± 0.067 | – | (↓) | (↓) | limited solubility | – | –
15 | COc1c(C)c2c(c(O)c1C/C=C(\C)CCC(=O)Nc1nc3c(OC)cccc3s1)C(=O)OC2 [A16, N-(4-methoxybenzo[d]thiazol-2-yl) mycophenolate] | 69 | – | 54.578 ± 0.027 | 46.29 ± 0.011 | 73 | 165 to 168 °C | – | – | – | (↓) | (↓) | limited solubility | – | –
16 | COc1c(C)c2c(c(O)c1C/C=C(\C)CCC(=O)Nc1nc3c(C)cccc3s1)C(=O)OC2 [A17, N-(4-methylbenzo[d]thiazol-2-yl) mycophenolate] | 82 | – | – | 82.1 | 69 | 173 to 176 °C | – | – | – | (↓) | – (↓) | limited solubility | 65 | –
17 | COc1c(C)c2c(c(O)c1C/C=C(\C)CCC(=O)Nc1nc3c(Cl)cccc3s1)C(=O)OC2 [A18, N-(4-chlorobenzo[d]thiazol-2-yl) mycophenolate] | – | – | 74.426 ± 0.037 | 14.7 ± 0.02 | – | – | 10.261 ± 0.001 | 11.28 ± 0.056 | consistent with that of MPA | – | – | – | – | –
18 | COc1c(C)c2c(c(O)c1C/C=C(\C)CCC(=O)O)C(=O)OC2 [MPA, Mycophenolic acid] | – | – | 10.52 ± 0.015 | 0.723 ± 0.011 | – | – | 0.509 ± 0.008 | 0.49 ± 0.002 | – | – | – | – | – | proliferation increases after the addition of GMP
